The nature of the data set: physchem. It is filed as physicochemical. The conditions noted are these: for solubility: water. As to the method:
Four different active agents with different solubilities were selected for the preparation of multi-layer tablets, as follows:
9410 (Prednisone)—solubility of 0.1 mg/ml in water.

One may read the solubility as the concentration that dissolves in the medium under given conditions. A high value points to much dissolved substance.

Values after ≈ are worked out from the molar mass of the structure shown. Where a name gives a salt, the structure may show the parent alone.

As for `CC(C)(Cc1c[nH]c2ccccc12)NCC(O)COc1ccccc1C#N` (stereo not drawn) [compound 8110, Bucindolol], the “solubility described in words” value is listed as “freely soluble” and the solubility is 257 mg/mL (≈ 707 mM).
As for `COc1ccc([C@@H]2Sc3ccccc3N(CCN(C)C)C(=O)[C@@H]2OC(C)=O)cc1` [compound 8403, Diltiazem HCl], the “solubility described in words” value is reported as “Very soluble” and the solubility worked out at 1200 mg/mL.
The like results for `C[C@]12C=CC(=O)C=C1CC[C@@H]1[C@@H]2C(=O)C[C@@]2(C)[C@H]1CC[C@]2(O)C(=O)CO` [compound 9410, Prednisone] were, in that order, “soluble” and 0.1 mg/mL (≈ 0.279 mM).

For the origin of these results see patent publication US20100196475A1, “CONTROLLED RELEASE TABLET FORMULATION CONTAINING MAGNESIUM ALUMINOMETASILICATE” (priority 2007, published 2010).
